Read-outs that look alike come from different tables or passages of the source.
Tests used:
[1] = in vitro 3T3 NRU test, cytotoxicity; type: cell-based, mouse; details: mouse, BALB/3T3 clone A31 cells (mouse embryo fibroblasts)
Method: (§1) Compounds 2–5 were studied for cytotoxicity/phototoxicity by an in vitro 3T3 NRU-test. The cell line BALB 3T3, clone A31 (mouse embryo fibroblasts), was incubated with the test compounds at a concentration from 15 to 4000 µg/mL for 24 h at 37 °C, 5% CO2, and 95% humidity. The cytotoxicity and phototoxicity were expressed in percentages relative to the negative control determined. […] Based on the dose–response curves, the CC50/PC50 values (50% cytotoxic/phototoxic concentration) were calculated by nonlinear regression analysis (Table 1). The CC50 values can be used to calculate the PIF (photo-irritancy factor) for each test compound according to the following formula: PIF = CC50/PC50.
(§2) BALB/3T3 cells were cultured in 75 cm^2 tissue culture flasks in DMEM, 10% FBS, 2 mM glutamine, and antibiotics (penicillin 100 U/mL and streptomycin-100 µg/mL) at 37 °C, 5% CO2, and 90% relative humidity. Cytotoxicity/phototoxicity was assessed by a validated BALB/3T3 clone A31 neutral red uptake assay (3T3 NRU test). Briefly, cells were plated in a 96-well microtiter plate at a density of 1 × 10^4 cells/100 µL/well and incubated for 24 h. A wide concentration range was applied for the test compounds. For the phototoxicity tests, 96-well plates were irradiated with a dose of 2.4 J/cm^2, and the cells were incubated for an additional 24 h. After treatment with neutral red medium, washing, and treatment with the ethanol/acetic acid solution, the absorption was measured on a TECAN microplate reader (TECAN, Grödig, Austria) at a wavelength of 540 nm. The light source which we used was a light-emitting diode (LED) matrix—an artificial solar light simulator Helios-iO, model LE-9ND55-H—5500K (SERIC Ltd., Tokyo, Japan).
Cytotoxicity/phototoxicity were expressed as CC50/PC50 values (concentrations required for 50% cytotoxicity/phototoxicity), calculated using non-linear regression analysis (GraphPad Software GraphPad Prism 9.5.1, San Diego, CA, USA). The CC50 values were used to calculate the PIF (photo-irritancy factor) for each test substance, according to the following formula: […]

BALB 3T3 cells = assay: in vitro 3T3 NRU test, phototoxicity; type: cell-based, mouse; details: for IC50: Mus musculus, light or radiation study; for PIF (photo-irritancy factor): PIF = CC50/PC50, <2 not phototoxic
Method: as §1, §2
Cytotoxicity/phototoxicity were expressed as CC50/PC50 values (concentrations required for 50% cytotoxicity/phototoxicity), calculated using non-linear regression analysis (GraphPad Software GraphPad Prism 9.5.1, San Diego, CA, USA). The CC50 values were used to calculate the PIF (photo-irritancy factor) for each test substance, according to the following formula:
PIF = Cytotoxicity (CC50)/Phototoxicity (PC50)

MCF-7 = assay: MTT anti-proliferative test, MCF-7; type: cell-based, human; details: for SI (selective index) MCF-7: IC50 MCF-10A/IC50 MCF-7
Excerpt: The MCF-10A cell line (normal human mammary epithelial cells) served as a reference control.
All breast cell lines (MCF-10A, MCF-7, and MDA-MB-231) were purchased from the American Type Culture Collection—ATCC (Manassas, VA, USA). The MCF-7 and MDA-MB-231 were cultivated in Dulbecco’s modified Eagle’s medium (DMEM) and supplemented with 10% fetal bovine serum (FBS), 1% sodium pyruvate, and 1% MEM non-essential amino acids (NEAA) without antibiotics. The non-tumorigenic breast cell line (MCF-10A) was cultivated in DMEM medium (Sigma-Aldrich, St. Louis, MO, USA) and supplemented with 10% FBS, 1% sodium pyruvate, 1% non-essential amino acids (NEAA), 20 ng/mL human epithelia growth factor (hEGF), 10 μg/mL insulin, and 0.5 μg/mL hydrocortisone without antibiotics. All cell lines were maintained in a humidified atmosphere, with 5% CO2 at 37 °C.
Using the standard MTT-dye reduction assay described by Mosmann, the anti-proliferative activity was tested. The method is based on the metabolism of the tetrazolium salt MTT to insoluble formazan. The formazan absorption was registered using a microplate reader at λ = 540 nm. The measured absorption is an indicator of cell viability and metabolic activity. Anti-proliferative activities were expressed as IC50 values (concentrations required for 50% inhibition of cell growth), calculated using non-linear regression analysis (GraphPad Software, San Diego, CA, USA).

MDA-MB-231 = assay: Cell cycle analysis by propidium iodide staining, MDA-MB-231; type: cell-based, human; details: for cell cycle arrest phase, MDA-MB-231: ER negative cell line; for change of %G1 vs control, MDA-MB-231 / change of %G2 vs control, MDA-MB-231 / change of %S vs control, MDA-MB-231: control = 100%, 24 h; for %G1, MDA-MB-231 / %G2, MDA-MB-231 / %S, MDA-MB-231: treated at IC50, 24 h
Method: Our study continued with the examination of the effect of the newly synthesized compounds’ IC50 values on cell cycle progression. The cell aliquots were collected, and FACS analyses were used to detect the effects of cell treatments with the selected compounds (2, 4, and 5). A propidium iodide staining assay was performed.
The changes in the cell cycle distribution in % (G1, S, and G2 phases), based on the graphical figures A–C, were calculated and are given in Table 4.
The cells were trypsinized, suspended in medium + 10% FCS, and centrifuged (1000 rpm, 5 min); then, the pellet was suspended in PBS (1 mL) and fixed with EtOH. The cells were suspended in 2.5 mL pre-cold 70% EtOH and incubated on ice for 15 min. The staining procedure was as follows: the pellet was suspended in a 500 μL PI-solution in PBS and 0.1 mg/mL RNase A, and 0.05% Triton X-100 was added. After incubation for 10 min at 37 °C, the cells were transferred to the flow cytometer and cell fluorescence was measured. The samples were measured by flow cytometry (LSR II, BD Biosciences, Franklin Lakes, NJ, USA) and analyzed using BD FACS DIVA software v. 6.1.3 (BD Biosciences).

[2] = BALB 3T3, 24 h, NRU, no irradiation (CC50), read-out: IC50 of Mean ± SD, Cytotoxicity
[3] = BALB 3T3, value in brackets, read-out: IC50, Cytotoxicity (converted)
[4] = BALB 3T3, irradiated 2.4 J/cm^2 (PC50), read-out: IC50 of Mean ± SD, Phototoxicity
[5] = BALB 3T3, irradiated, value in brackets, read-out: IC50, Phototoxicity (converted)
[6] = Homo sapiens, MCF7, MTT, read-out: IC50 MCF-7 (converted)
[7] = Homo sapiens, MCF7, MTT, read-out: IC50 of Mean ± SD, Anti-Proliferative Activity MCF-7
[8] = MTT, read-out: IC50 MCF-7 (converted)

| Structure (SMILES) | IC50 at 24 h [1, 2] [µg/mL] | IC50 at 24 h [1, 3] [µM] | IC50 (BALB 3T3 cells; [4]) [µg/mL] | IC50 (BALB 3T3 cells; [5]) [µM] | IC50 (MCF-7; [6]) [µM] | IC50 (MCF-7; [7]) [µg/mL] | SI (selective index) MCF-7 (MCF-7) | IC50 (MCF-7; [8]) [µM] | cell cycle arrest phase, MDA-MB-231 (MDA-MB-231) | change of %G1 vs control, MDA-MB-231 (MDA-MB-231) [%] | change of %G2 vs control, MDA-MB-231 (MDA-MB-231) | change of %S vs control, MDA-MB-231 (MDA-MB-231) | %G1, MDA-MB-231 (MDA-MB-231) [%] | %G2, MDA-MB-231 (MDA-MB-231) [%] | %S, MDA-MB-231 (MDA-MB-231) [%] | melting point [°C] | PIF (photo-irritancy factor) (BALB 3T3 cells) |
| --- | --- | --- | --- | --- | --- | --- | --- | --- | --- | --- | --- | --- | --- | --- | --- | --- | --- |
| CCOC(=O)Cc1nc(N)c2c(C)c(C(=O)OCC)sc2n1 [Compound 2, Ethyl 4-Amino-2-(2-Ethoxy-2-Oxoethyl)-5-Methylthieno[2,3-d]Pyrimidine-6-Carboxylate] | 1740 ± 75.5 | 5370 | 1080 ± 117 | 3300 | 300 | 83.1 ± 7.3 | 6.1 | 260 | cell cycle arrest in the G2 stage | −17.63 | +53.65% | +15% | 34.1 | 6.73 | 53.6 | 206 to 207 |  |
| CCOC(=O)c1sc2nc(CC)nc(N)c2c1C [Compound 4, Ethyl 4-Amino-2-Ethyl-5-Methylthieno[2,3-d]Pyrimidine-6-Carboxylate] | 2630 | 9370 | 2110 ± 122 | 8000 | 100 | 28.9 ± 2.1 | 12.7 | 110 | cell cycle arrest in the G2 stage | −29.46 | +44.9% | +14.4% | 29.2 | 6.35 | 53.3 | 173 to 175 | 1.2 |
| CCOC(=O)c1sc2nc(C)nc(N)c2c1C [Compound 5, Ethyl 4-Amino-2,5-Dimethyl-Thieno[2,3-d]Pyrimidine-6-Carboxylate] | 1540 ± 61.5 | 5400 | 2350 ± 114 | 9400 | 100 | 35.5 ± 1.5 | 17.4 | 140 | cell cycle arrest in the G2 stage | −20 | +45.9% | +15.45% | 33.1 | 6.439 | 53.8 | 203 to 204 | 1.2 |

— paper PMC10489817, “2-Alkyl-Substituted-4-Amino-Thieno[2,3-d]Pyrimidines: Anti-Proliferative Properties to In Vitro Breast Cancer Models” (Molecules, 2023)
